Experimental data: US12708629B2, “Methods and compositions for reducing parathyroid levels” (EIRGEN PHARMA LTD., priority 2010, dated 2026)

Key:
[1] = Single-dose pharmacokinetics of oral 25-hydroxyvitamin D3 formulations and IV injection in miniature swine (Example 1); assay type: in vivo, Yucatan miniature swine
Experimental: Nine oral vitamin D formulations were prepared according to Table 2 below by homogeneously mixing the identified components in the amounts shown and filling the mixtures into hard gelatin capsules. Formulation 9 is an immediate-release formulation according to the prior art, wherein MIGLYOL 812N is the trade name for caprylic/capric triglycerides, available from CONDEA Chemie GmbH of Cranford, New Jersey, USA. […] Each group included five animals.
Blood was collected pre-dose, and at 0.5, 1, 2, 4, 6, 8, 12, 24, 48, 96, 168, 240, 336, 432, 504, 576, and 672 hours post dosing. Serum 25-hydroxyvitamin D3 levels were assayed by Liquid Chromatography/Mass Spectrometry/Mass Spectrometry (LC MS/MS).

[2] = Expected rise of serum 25-hydroxyvitamin D3 in a human, stated after the mini-pig result; assay type: in vivo; settings: single dose of 50 μg to a human (about 60 kg)
clinical = settings: human, in vivo, 450 ug
Text: (§1) The modified release dosage formulation was the same as formulation 7 in Table 2 herein, with the following exceptions: (1) a vegetable-based capsule was used in place of a gelatin capsule; (2) hard paraffin content was reduced to 20%; and (3) liquid paraffin (light mineral oil) content was increased to 30%.
(§2) The bioavailability of the modified release dosage form was about 10% measured over the duration of the study (42 days).

iPTH = experiment: Example 8: iPTH in Stage 3 or 4 CKD subjects; assay type: in vivo, human; settings: single dose: IV 448 μg or 450 μg MR
Text: as §1, §2

[3] = Yucatan, minipig, serum, iv, 250 ug

## C=C1CC[C@H](O)C/C1=C/C=C1\CCC[C@]2(C)[C@@H]([C@H](C)CCCC(C)(C)O)CC[C@@H]12 [25-hydroxyvitamin D3]
[1]; [3]
  AUC(0-inf): 16600 ng·h/mL
  Cmax: 155 ng/mL
  Tmax: 1.5 h
[1]; Yucatan, minipig, serum, iv, 250 ug, read-out: AUC (0-672 hr)
  AUC(0-t): 15000 ng·h/mL
[1]; Yucatan, minipig, serum, iv, 250 ug, read-out: T½ (converted)
  half-life: 132 h
[1]; single 250 μg dose, Group 10 IV injection = 100.0
  BA: 100.0%
[2]
  expected increase of serum 25-hydroxyvitamin D3: about 1.4 ng/ml
clinical
  Cmax: 134 ± 19 ng/mL
  half-life: 1780 h
  tmax, AVG: 0.49 h
clinical; AVG
  Tmax: 0.5 ± 0.6 h
clinical; Median
  Tmax: 0.25 h
iPTH
  effect on mean iPTH: minimal to no effect
iPTH; listed as IV calcifediol
  effect on mean iPTH: no clinically meaningful effect
